The values that follow are results of earlier work, collected in patent US4942167A, “Pharmaceutical compositions of piroxicam in aqueous solutions and process for their preparation” (Chiesi Farmaceutici S.p.A., priority 1988, dated 1990).

For the data set the following is noted: in words, background.

Take `CN1C(C(=O)Nc2ccccn2)=C(O)c2ccccc2S1(=O)=O` [piroxicam, N-(2-pyridyl)-2-methyl-4-hydroxy-2H-1,2-benzothiazine-3-carboxyamido-1,1-dioxide]: the water-solubility entry is recorded as “poor”.
